Key:
Test in all cases: AlphaScreen Assay
[1] = target: Receptor tyrosine-protein kinase erbB-2 (Homo sapiens, UniProt P04626)
Ephrin type-A receptor 2 = Ephrin type-A receptor 2 (Homo sapiens, UniProt P29317)
[2] = target: Vascular endothelial growth factor receptor 2 (Homo sapiens, UniProt P35968)
Sequence of Vascular endothelial growth factor receptor 2 (P35968 whole entry): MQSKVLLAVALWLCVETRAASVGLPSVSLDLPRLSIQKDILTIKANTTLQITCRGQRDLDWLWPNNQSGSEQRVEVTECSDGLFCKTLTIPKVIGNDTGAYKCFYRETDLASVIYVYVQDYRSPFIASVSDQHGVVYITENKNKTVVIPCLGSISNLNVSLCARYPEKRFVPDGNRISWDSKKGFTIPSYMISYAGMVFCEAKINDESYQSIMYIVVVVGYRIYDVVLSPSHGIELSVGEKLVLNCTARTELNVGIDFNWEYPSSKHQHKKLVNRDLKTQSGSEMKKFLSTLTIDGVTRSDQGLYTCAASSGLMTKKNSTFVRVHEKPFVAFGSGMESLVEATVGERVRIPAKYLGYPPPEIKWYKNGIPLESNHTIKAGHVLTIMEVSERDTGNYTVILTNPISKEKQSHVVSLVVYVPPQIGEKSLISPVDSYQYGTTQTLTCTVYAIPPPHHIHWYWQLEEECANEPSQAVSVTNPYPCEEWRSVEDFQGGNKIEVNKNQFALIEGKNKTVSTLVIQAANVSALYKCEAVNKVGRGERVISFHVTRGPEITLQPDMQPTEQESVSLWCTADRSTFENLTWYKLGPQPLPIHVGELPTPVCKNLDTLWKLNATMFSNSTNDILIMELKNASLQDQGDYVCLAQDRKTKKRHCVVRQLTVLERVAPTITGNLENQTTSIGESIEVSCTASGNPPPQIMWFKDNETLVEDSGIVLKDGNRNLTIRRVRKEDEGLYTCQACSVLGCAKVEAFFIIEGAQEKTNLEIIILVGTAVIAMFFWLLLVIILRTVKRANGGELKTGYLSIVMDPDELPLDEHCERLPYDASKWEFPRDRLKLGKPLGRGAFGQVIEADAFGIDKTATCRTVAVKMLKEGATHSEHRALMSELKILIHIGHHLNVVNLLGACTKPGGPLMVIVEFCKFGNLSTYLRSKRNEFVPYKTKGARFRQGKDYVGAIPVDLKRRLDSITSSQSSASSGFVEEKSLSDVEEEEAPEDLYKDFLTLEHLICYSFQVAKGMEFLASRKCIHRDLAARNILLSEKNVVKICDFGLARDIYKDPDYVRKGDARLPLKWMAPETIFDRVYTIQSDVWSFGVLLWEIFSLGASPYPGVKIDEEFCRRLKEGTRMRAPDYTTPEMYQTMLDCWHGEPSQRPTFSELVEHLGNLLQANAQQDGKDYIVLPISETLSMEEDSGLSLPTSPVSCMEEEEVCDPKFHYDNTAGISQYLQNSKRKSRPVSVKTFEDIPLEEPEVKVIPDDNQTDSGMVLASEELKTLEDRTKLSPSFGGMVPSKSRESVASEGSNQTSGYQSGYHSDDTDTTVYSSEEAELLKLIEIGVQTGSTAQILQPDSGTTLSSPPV

Sequence of Receptor tyrosine-protein kinase erbB-2 (P04626 whole entry): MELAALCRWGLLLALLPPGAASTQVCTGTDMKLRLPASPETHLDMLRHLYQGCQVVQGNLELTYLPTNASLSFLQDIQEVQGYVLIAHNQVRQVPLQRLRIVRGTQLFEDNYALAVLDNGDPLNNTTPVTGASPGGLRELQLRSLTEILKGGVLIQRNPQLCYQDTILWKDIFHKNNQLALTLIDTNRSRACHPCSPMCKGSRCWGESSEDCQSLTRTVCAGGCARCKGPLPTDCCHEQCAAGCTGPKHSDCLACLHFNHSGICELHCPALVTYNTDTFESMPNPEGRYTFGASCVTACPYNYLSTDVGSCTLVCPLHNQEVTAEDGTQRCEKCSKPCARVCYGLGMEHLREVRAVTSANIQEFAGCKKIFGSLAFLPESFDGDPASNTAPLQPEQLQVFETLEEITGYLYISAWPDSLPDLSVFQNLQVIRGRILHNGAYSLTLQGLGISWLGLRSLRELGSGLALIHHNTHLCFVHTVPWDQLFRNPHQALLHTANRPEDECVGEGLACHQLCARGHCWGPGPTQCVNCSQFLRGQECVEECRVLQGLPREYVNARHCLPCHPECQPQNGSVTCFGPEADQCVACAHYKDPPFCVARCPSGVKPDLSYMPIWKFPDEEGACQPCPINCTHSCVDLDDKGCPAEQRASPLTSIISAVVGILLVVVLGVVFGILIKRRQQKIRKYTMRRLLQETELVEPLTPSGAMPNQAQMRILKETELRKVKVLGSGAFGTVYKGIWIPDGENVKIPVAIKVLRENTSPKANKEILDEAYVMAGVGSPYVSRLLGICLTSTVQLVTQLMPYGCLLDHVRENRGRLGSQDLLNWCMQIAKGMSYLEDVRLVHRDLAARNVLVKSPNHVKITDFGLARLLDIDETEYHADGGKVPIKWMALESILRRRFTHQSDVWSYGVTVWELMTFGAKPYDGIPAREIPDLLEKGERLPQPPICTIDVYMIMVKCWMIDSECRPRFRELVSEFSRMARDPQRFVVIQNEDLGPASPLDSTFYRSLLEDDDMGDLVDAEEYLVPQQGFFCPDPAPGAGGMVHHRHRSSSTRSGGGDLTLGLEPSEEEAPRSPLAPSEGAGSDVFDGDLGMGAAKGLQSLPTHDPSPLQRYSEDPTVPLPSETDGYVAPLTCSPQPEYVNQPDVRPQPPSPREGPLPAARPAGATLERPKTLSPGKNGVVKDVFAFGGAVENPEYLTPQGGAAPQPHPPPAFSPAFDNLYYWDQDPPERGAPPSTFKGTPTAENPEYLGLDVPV
Sequence of Ephrin type-A receptor 2 (P29317 whole entry): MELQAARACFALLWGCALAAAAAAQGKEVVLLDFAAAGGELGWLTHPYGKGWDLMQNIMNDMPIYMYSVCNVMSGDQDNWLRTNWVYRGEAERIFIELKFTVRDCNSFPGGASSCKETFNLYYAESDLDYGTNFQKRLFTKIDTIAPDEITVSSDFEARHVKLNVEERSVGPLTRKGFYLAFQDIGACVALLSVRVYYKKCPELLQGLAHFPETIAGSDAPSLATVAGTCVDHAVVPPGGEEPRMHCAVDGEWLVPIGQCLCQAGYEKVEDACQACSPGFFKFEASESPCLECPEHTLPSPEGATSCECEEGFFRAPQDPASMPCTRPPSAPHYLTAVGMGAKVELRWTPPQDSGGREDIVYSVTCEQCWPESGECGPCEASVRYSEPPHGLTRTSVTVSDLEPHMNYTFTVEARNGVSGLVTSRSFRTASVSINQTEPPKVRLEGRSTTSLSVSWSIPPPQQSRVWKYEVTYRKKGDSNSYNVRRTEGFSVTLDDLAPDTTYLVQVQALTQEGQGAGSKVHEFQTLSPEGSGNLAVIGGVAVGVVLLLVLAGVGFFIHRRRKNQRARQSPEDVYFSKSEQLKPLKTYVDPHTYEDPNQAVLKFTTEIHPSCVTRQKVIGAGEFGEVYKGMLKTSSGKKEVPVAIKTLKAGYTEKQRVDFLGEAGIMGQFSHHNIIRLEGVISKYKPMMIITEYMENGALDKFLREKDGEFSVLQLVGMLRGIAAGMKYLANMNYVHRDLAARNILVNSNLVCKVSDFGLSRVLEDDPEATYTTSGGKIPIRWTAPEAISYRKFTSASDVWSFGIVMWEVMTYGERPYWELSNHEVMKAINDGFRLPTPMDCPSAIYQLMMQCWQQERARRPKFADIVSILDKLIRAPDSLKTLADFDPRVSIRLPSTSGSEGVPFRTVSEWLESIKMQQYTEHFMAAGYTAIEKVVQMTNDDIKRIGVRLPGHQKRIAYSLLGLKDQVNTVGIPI

IC50 [1]	IC50 (Ephrin type-A receptor 2)	IC50 [2]	Structure (SMILES)
in the range around 10500 nM	in the range around 525 nM	in the range around 525 nM	COc1cc2c(Nc3cc(Cl)c(Cl)cc3F)ncnc2cc1OC[C@@H]1CN2CCC[C@H]2CO1 [US9796704, Entry 40]
in the range around 525 nM	in the range around 525 nM	–	COc1cc2c(Nc3ccc(Cl)c(Cl)c3F)ncnc2cc1O[C@@H]1CO[C@@H]2[C@H]1OC[C@H]2F [US9796704, Entry 97]
in the range around 525 nM	in the range around 525 nM	in the range around 525 nM	COc1cc2c(Nc3ccc(Cl)cc3Cl)ncnc2cc1O[C@@H]1CO[C@@H]2[C@H]1OC[C@H]2F [US9796704, Entry 117]
in the range around 525 nM	in the range around 525 nM	–	COc1cc2c(Nc3ccc(Cl)c(Cl)c3)ncnc2cc1OCC1CN(C(=O)OC(C)(C)C)CCO1 (centres undefined) [US9796704, Entry 148]
in the range around 525 nM	in the range around 525 nM	in the range around 525 nM	COc1cc2c(Nc3ccc(Cl)c(Cl)c3)ncnc2cc1OCc1ccncc1 [US9796704, Entry 172]
in the range around 525 nM	–	in the range around 525 nM	COc1cc2c(Nc3ccc(Cl)c(Cl)c3)ncnc2cc1OCc1nccn1Cc1ccccc1 [US9796704, Entry 229]
in the range around 10500 nM	in the range around 525 nM	in the range around 525 nM	COc1cc2c(Nc3ccc(Cl)c(Cl)c3)ncnc2cc1OCc1c(F)cccc1F [US9796704, Entry 233]
in the range around 525 nM	–	in the range around 525 nM	COc1cc2c(Nc3ccc(Cl)c(Cl)c3)ncnc2cc1OCc1csc(N(C)C)n1 [US9796704, Entry 240]
in the range around 525 nM	–	in the range around 525 nM	CCN1CCCOC(COc2cc3ncnc(Nc4ccc(Cl)c(Cl)c4)c3cc2OC)C1 (centres undefined) [US9796704, Entry 241]
in the range around 525 nM	–	in the range around 525 nM	COc1cc2c(Nc3ccc(Cl)c(Cl)c3)ncnc2cc1OCc1csc(CO)n1 [US9796704, Entry 246]
in the range around 525 nM	–	in the range around 525 nM	COc1cc2c(Nc3ccc(Cl)c(Cl)c3)ncnc2cc1OCc1csc([C@@H]2CSCN2)n1 [US9796704, Entry 248]
in the range around 10500 nM	–	in the range around 525 nM	COc1cc2c(Nc3ccc(Cl)c(Cl)c3)ncnc2cc1OCc1csc(C2CCCCN2)n1 (centres undefined) [US9796704, Entry 249]
in the range around 10500 nM	–	in the range around 525 nM	COc1cc2c(Nc3ccc(Cl)c(Cl)c3)ncnc2cc1OCc1csc(C2CCCCN2C)n1 (centres undefined) [US9796704, Entry 250]
in the range around 10500 nM	–	in the range around 10500 nM	COc1cc2c(Nc3ccc(Cl)c(Cl)c3)ncnc2cc1OCc1csc(C2CCCNC2)n1 (centres undefined) [US9796704, Entry 251]
in the range around 10500 nM	–	in the range around 10500 nM	CCN1CCCCC1c1nc(COc2cc3ncnc(Nc4ccc(Cl)c(Cl)c4)c3cc2OC)cs1 (centres undefined) [US9796704, Entry 253]
in the range around 525 nM	–	in the range around 10500 nM	CCN1CCCC(c2nc(COc3cc4ncnc(Nc5ccc(Cl)c(Cl)c5)c4cc3OC)cs2)C1 (centres undefined) [US9796704, Entry 254]
in the range around 10500 nM	in the range around 10500 nM	in the range around 10500 nM	CCCN1CCCOC(COc2cc3ncnc(Nc4ccc(Cl)c(Cl)c4)c3cc2OC)C1 (centres undefined) [US9796704, Entry 258]

IC50 [1]	IC50 (Ephrin type-A receptor 2)	IC50 [2]	Structure (SMILES)
in the range around 10500 nM	in the range around 10500 nM	in the range around 10500 nM	COc1cc2c(Nc3ccc(Cl)c(Cl)c3)ncnc2cc1OCC1CN(CC2CC2)CCCO1 (centres undefined) [US9796704, Entry 259]
in the range around 525 nM	–	in the range around 10500 nM	COCCN1CCCOC(COc2cc3ncnc(Nc4ccc(Cl)c(Cl)c4)c3cc2OC)C1 (centres undefined) [US9796704, Entry 260]
in the range around 525 nM	–	in the range around 10500 nM	COc1cc2c(Nc3ccc(Cl)c(Cl)c3)ncnc2cc1OCC1CN(C(C)C)CCCO1 (centres undefined) [US9796704, Entry 261]
in the range around 10500 nM	–	in the range around 10500 nM	COc1cc2c(Nc3ccc(Cl)c(Cl)c3)ncnc2cc1OCc1csc(N2CCNCC2)n1 [US9796704, Entry 262]
in the range around 10500 nM	–	in the range around 10500 nM	COc1cc2c(Nc3ccc(Cl)c(Cl)c3)ncnc2cc1OCc1noc(C2CCCN2)n1 (centres undefined) [US9796704, Entry 263]
in the range around 10500 nM	–	in the range around 525 nM	CCN1CCCC1c1nc(COc2cc3ncnc(Nc4ccc(Cl)c(Cl)c4)c3cc2OC)no1 (centres undefined) [US9796704, Entry 264]
in the range around 10500 nM	–	in the range around 10500 nM	COc1cc2c(Nc3ccc(Cl)c(Cl)c3)ncnc2cc1OCc1nc([C@@H]2CCCN2C)no1 [US9796704, Entry 265]
in the range around 10500 nM	–	in the range around 10500 nM	COc1cc2c(Nc3ccc(Cl)c(Cl)c3)ncnc2cc1OCc1csc([C@@H]2CCCN2C)n1 [US9796704, Entry 266]
in the range around 525 nM	–	in the range around 10500 nM	CCN1CCN(c2nc(COc3cc4ncnc(Nc5ccc(Cl)c(Cl)c5)c4cc3OC)cs2)CC1 [US9796704, Entry 267]
in the range around 525 nM	–	in the range around 10500 nM	COc1cc2c(Nc3ccc(Cl)c(Cl)c3)ncnc2cc1OCC1CN(C)CCN1C (centres undefined) [US9796704, Entry 268]
in the range around 525 nM	–	in the range around 525 nM	COc1cc2c(Nc3ccc(Cl)c(Cl)c3)ncnc2cc1OCC1CN(C(C)C)CCO1 (centres undefined) [US9796704, Entry 270]
in the range around 525 nM	–	in the range around 10500 nM	COc1cc2c(Nc3ccc(Cl)c(Cl)c3)ncnc2cc1OCC1CN(CCCc2ccccc2)CCO1 (centres undefined) [US9796704, Entry 271]
in the range around 525 nM	–	in the range around 10500 nM	COCCN1CCOC(COc2cc3ncnc(Nc4ccc(Cl)c(Cl)c4)c3cc2OC)C1 (centres undefined) [US9796704, Entry 272]
in the range around 10500 nM	–	in the range around 10500 nM	CCOC(=O)C(C)N1CCOC(COc2cc3ncnc(Nc4ccc(Cl)c(Cl)c4)c3cc2OC)C1 (centres undefined) [US9796704, Entry 273]
in the range around 10500 nM	–	in the range around 10500 nM	COc1cc2c(Nc3ccc(Cl)c(Cl)c3)ncnc2cc1OCC1CN(CCOCCO)CCO1 (centres undefined) [US9796704, Entry 275]
in the range around 525 nM	–	in the range around 10500 nM	COc1cc2c(Nc3ccc(Cl)c(Cl)c3)ncnc2cc1OCC1CN(CCCCCC#N)CCO1 (centres undefined) [US9796704, Entry 277]

Structure (SMILES)	IC50 [1]	IC50 (Ephrin type-A receptor 2)	IC50 [2]
COc1cc2c(Nc3ccc(Cl)c(Cl)c3)ncnc2cc1OC[C@@H]1CN2CCC[C@@H]2CO1 [US9796704, Entry 33]	in the range around 525 nM	in the range around 525 nM	–
